The results in this text go back to patent publication US7517874B2 (priority 2007, dated 2009).

One may read the EC50 as the midpoint of the concentration-response curve.

Where two headings read alike, the source gives them in different places.

In experiment [1] the target is human CB1 receptor (hCB1) (Homo sapiens, UniProt P21554). Nature of the experiment: cell-based. The class given is cell-based. An outline of the steps:
(§1)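 Agonism or inverse agonism was assessed as change in intracellular cAMP in CHO-K1 cells expressing human CB1 or rat CB2 (genomic DNA, pcDNA3.1).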

In experiment [2] the target is T1, rat CB2 receptor (rCB2) (Rattus norvegicus, UniProt Q9QZN9).
T1 sequence (Q9QZN9 1-360): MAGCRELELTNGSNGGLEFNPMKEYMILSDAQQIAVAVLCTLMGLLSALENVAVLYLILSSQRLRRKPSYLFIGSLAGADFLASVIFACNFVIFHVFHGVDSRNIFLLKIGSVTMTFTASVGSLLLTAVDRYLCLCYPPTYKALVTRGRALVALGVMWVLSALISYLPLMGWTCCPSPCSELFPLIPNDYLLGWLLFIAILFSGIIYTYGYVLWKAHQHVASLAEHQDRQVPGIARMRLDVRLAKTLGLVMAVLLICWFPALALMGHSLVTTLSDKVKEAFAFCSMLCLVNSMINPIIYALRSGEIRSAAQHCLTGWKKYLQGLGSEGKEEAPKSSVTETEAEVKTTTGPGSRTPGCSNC
The experiment is described as follows: cell-based. The class given is cell-based. Conditions: for +/− RCB2: agonist or inverse agonist at rCB2. An outline of the steps:
as §1

Chain of human CB1 receptor (hCB1) (P21554 whole entry): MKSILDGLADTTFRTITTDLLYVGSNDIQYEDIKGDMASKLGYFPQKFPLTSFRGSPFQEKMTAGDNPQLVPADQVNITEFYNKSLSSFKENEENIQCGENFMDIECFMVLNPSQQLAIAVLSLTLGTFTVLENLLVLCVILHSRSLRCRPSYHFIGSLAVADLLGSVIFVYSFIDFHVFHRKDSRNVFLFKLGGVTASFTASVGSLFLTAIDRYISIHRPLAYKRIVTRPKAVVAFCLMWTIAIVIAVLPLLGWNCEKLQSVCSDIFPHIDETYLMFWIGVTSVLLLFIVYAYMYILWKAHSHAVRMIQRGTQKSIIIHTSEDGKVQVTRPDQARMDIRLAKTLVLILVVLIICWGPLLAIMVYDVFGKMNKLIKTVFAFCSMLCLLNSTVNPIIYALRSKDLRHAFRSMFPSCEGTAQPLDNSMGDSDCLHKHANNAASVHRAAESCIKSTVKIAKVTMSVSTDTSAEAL

Consider `CNC(=O)[C@@H](NC(=O)c1nc(-c2cc(C(N)=O)ccc2F)n2c1CN(C)CCC2)C(C)(C)C` [Compound 405, (S)-3-(5-carbamoyl-2-fluorophenyl)-N-(3,3-dimethyl-1-(methylamino)-1-oxobutan-2-yl)-8-methyl-6,7,8,9-tetrahydro-5H-imidazo[1,5-a][1,4]diazepine-1-carboxamide], for which the EC50 in experiment [1] (groups >100 nM-10 μM and >10 μM, cAMP, CHO-K1 hCB1, read-out: EC50 HCB1) is > 10000 nM; in experiment [2] (groups >100 nM-10 μM and >10 μM, cAMP, CHO-K1 rCB2, read-out: EC50 RCB2) it was > 10000 nM.
On to `CNC(=O)c1cc(-c2nc(C(=O)N[C@H](C(=O)NC)C(C)(C)C)c3n2CCCN(C)C3)ccc1F` [Compound 406, (S)-N-(3,3-dimethyl-1-(methylamino)-1-oxobutan-2-yl)-3-(4-fluoro-3-(methylcarbamoyl)phenyl)-8-methyl-6,7,8,9-tetrahydro-5H-imidazo[1,5-a][1,4]diazepine-1-carboxamide], for which the EC50 in experiment [1] is > 10000 nM. For the same molecule, the “+/− RCB2” value in experiment [2] is reported as “+”.
Regarding `CNC(=O)[C@@H](NC(=O)c1nc(-c2cccc(-c3nnc(C)o3)c2)n2c1CN(C)CCC2)C(C)(C)C` [Compound 407, (S)-N-(3,3-dimethyl-1-(methylamino)-1-oxobutan-2-yl)-8-methyl-3-(3-(5-methyl-1,3,4-oxadiazol-2-yl)phenyl)-6,7,8,9-tetrahydro-5H-imidazo[1,5-a][1,4]diazepine-1-carboxamide], the EC50 in experiment [1] and in experiment [2] was > 10000 nM each time.
As to `CNC(=O)c1ccc(-c2nc(C(=O)N[C@H](C(=O)NC)C(C)(C)C)c3n2CCCN(C)C3)cc1` [Compound 408], the concentration for a half-maximal effect (EC50) in experiment [1] and in experiment [2] was > 10000 nM each time.
On to `CNC(=O)[C@@H](NC(=O)c1nc(-c2cccc(S(C)(=O)=O)c2)n2c1CN(C)CCC2)C(C)(C)C` [Compound 409], for which the EC50 in experiment [1] was > 10000 nM. Further, in experiment [2], the “+/− RCB2” value is “−”.
As to `CNC(=O)[C@@H](NC(=O)c1nc(-c2ccc(S(=O)(=O)N(C)C)cc2)n2c1CN(C)CCC2)C(C)(C)C` [Compound 410, (S)-N-(3,3-dimethyl-1-(methylamino)-1-oxobutan-2-yl)-3-(4-(N,N-dimethylsulfamoyl)phenyl)-8-methyl-6,7,8,9-tetrahydro-5H-imidazo[1,5-a][1,4]diazepine-1-carboxamide], the EC50 in experiment [1] and in experiment [2] was > 10000 nM each time.
For `CNC(=O)[C@@H](NC(=O)c1nc(-c2ccc(F)c(C(=O)O)c2)n2c1CN(C)CCC2)C(C)(C)C` [Compound 411], the EC50 in experiment [1] and in experiment [2] was > 10000 nM in each case.
Consider `CNC(=O)[C@@H](NC(=O)c1nc(-c2cccc(C(=O)N(C)C)c2)n2c1CN(C)CCC2)C(C)(C)C` [Compound 412, (S)-N-(3,3-dimethyl-1-(methylamino)-1-oxobutan-2-yl)-3-(3-(dimethylcarbamoyl)phenyl)-8-methyl-6,7,8,9-tetrahydro-5H-imidazo[1,5-a][1,4]diazepine-1-carboxamide], for which the EC50 in experiment [1] and in experiment [2] was > 10000 nM in each case.
For `CNC(=O)[C@@H](NC(=O)c1nc(-c2ccccc2-c2ccccc2)n2c1CN(C)CCC2)C(C)(C)C` [Compound 413, (S)-3-(biphenyl-2-yl)-N-(3,3-dimethyl-1-(methylamino)-1-oxobutan-2-yl)-8-methyl-6,7,8,9-tetrahydro-5H-imidazo[1,5-a][1,4]diazepine-1-carboxamide], the EC50 in experiment [1] and in experiment [2] was > 10000 nM throughout.
For `CNC(=O)[C@@H](NC(=O)c1nc(-c2ccc(C(C)(C)C)cc2)n2c1CN(C)CCC2)C(C)(C)C` [Compound 414, (S)-3-(4-tert-butylphenyl)-N-(3,3-dimethyl-1-(methylamino)-1-oxobutan-2-yl)-8-methyl-6,7,8,9-tetrahydro-5H-imidazo[1,5-a][1,4]diazepine-1-carboxamide], in experiment [1], the EC50 is > 10000 nM. The “+/− RCB2” value in experiment [2] is listed as “−”.
`CNC(=O)[C@@H](NC(=O)c1nc(-c2ccc(C(C)=O)cc2)n2c1CN(C)CCC2)C(C)(C)C` [Compound 415, (S)-3-(4-acetylphenyl)-N-(3,3-dimethyl-1-(methylamino)-1-oxobutan-2-yl)-8-methyl-6,7,8,9-tetrahydro-5H-imidazo[1,5-a][1,4]diazepine-1-carboxamide]: the concentration giving a half-maximal response (EC50) in experiment [1] and in experiment [2] was > 10000 nM in each case.
